Assay results published in patent publication US5712300A, “Hydroxamic acid derivatives useful for the treatment of diseases related to connective tissue degradation” (priority 1997, dated 1998).

Columns and labels:
Assay type in all cases: biochemical
[1] = target: Stromelysin (Homo sapiens, UniProt P08254); assay: MMP inhibition by particle concentration fluorescence technique (stromelysin); conditions: pH 7.5; 15 min enzyme preincubation; substrate 1-3 h at room temperature; read-out: MMP Inhibition Constants, Stromelysin Ki
Stromelysin, sequence (P08254 100-477): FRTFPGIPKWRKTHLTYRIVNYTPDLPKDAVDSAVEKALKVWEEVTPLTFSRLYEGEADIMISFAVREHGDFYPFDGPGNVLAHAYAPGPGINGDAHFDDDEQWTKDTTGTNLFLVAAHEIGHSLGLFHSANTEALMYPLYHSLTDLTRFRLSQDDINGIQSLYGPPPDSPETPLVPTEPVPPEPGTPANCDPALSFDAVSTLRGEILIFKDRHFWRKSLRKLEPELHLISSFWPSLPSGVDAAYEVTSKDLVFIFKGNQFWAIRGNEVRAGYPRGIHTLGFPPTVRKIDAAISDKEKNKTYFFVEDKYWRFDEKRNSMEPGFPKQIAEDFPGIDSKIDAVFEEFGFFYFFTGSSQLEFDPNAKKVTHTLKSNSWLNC
From the text: An inhibitor binds to MMP enzymes prevents the degradation of a substrate of stromelysin, gelatinase, or collagenase. The substrate is attached with a fluorescein and a biotin. The intact substrate then binds to an avidin-coated particle via the biotin moiety. Once the particle is washed and dried, a fluorescent signal is generated since the fluorescent group is attached to the particle. Without an inhibitor present, the substrate is degraded by MMP enzymes and the fluorescein group is removed, therefore, no fluorescent signal can be detected. […] Serial two-fold dilutions of each compound are prepared. A concentrated, activated enzyme solution is transferred into each plate of the testing compounds, and the mixture is incubated at room temperature for 15 minutes.

[2] = target: Gelatinase; assay: MMP inhibition by particle concentration fluorescence technique (gelatinase); conditions: pH 7.5; 15 min enzyme preincubation; substrate 1-3 h at room temperature; read-out: MMP Inhibition Constants, Gelatinase Ki
Procedure: (§1) Inhibitory activity is evaluated in one or more of the MMP enzymes (stromelysin, gelatinase, and collagenase) in vitro using a particle concentration fluorescence techniques. An inhibitor binds to MMP enzymes prevents the degradation of a substrate of stromelysin, gelatinase, or collagenase. The substrate is attached with a fluorescein and a biotin. The intact substrate then binds to an avidin-coated particle via the biotin moiety. Once the particle is washed and dried, a fluorescent signal is generated since the fluorescent group is attached to the particle. Without an inhibitor present, the substrate is degraded by MMP enzymes and the fluorescein group is removed, therefore, no fluorescent signal can be detected. Testing compounds are dissolved in DMSO to the desired concentration, then the solutions are diluted to 1:5 with MMP buffer (50 mM Tris-HCl, pH 7.5; 150 mM NaCl; 0.02% NAN3). Serial two-fold dilutions of each compound are prepared. A concentrated, activated enzyme solution is transferred into each plate of the testing compounds, and the mixture is incubated at room temperature for 15 minutes. Thawed MMP substrate is then added into all plates, and the plates are incubate in the dark for 1-3 hours at room temperature. At this point, the substrate mixture is reacted with 0.1% avidin-coated polystyrene particles.

[3] = target: T1, Collagenase (Homo sapiens, UniProt P03956); assay: MMP inhibition by particle concentration fluorescence technique (collagenase); conditions: pH 7.5; 15 min enzyme preincubation; substrate 1-3 h at room temperature; read-out: MMP Inhibition Constants, Collagenase Ki
T1 sequence (P03956 100-469): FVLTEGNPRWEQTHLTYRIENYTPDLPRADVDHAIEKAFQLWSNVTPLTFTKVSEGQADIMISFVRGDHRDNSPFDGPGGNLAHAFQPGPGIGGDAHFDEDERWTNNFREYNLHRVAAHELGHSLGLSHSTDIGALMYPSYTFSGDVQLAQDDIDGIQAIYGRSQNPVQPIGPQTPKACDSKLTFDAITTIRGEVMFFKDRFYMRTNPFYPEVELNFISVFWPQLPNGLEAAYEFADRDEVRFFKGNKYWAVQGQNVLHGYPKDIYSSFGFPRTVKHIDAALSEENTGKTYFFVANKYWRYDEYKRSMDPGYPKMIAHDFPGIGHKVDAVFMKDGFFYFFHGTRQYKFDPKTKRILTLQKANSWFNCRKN
Procedure: as §1

| Structure (SMILES) | Ki [1] | Ki [2] | Ki [3] |
| --- | --- | --- | --- |
| CNC(=O)[C@H](Cc1ccccc1)N1CC[C@@](CC(C)C)([C@H](CCN2C(=O)c3ccccc3C2=O)C(=O)NO)C1=O [Example 58, [3S-[1(R*),3R*(R*)]]-α^3-[2-(1,3-Dihydro-1,3-dioxo-2H-isoindol-2-yl)ethyl]-N^3-hydroxy-N^1-methyl-3-(2-methylpropyl)-2-oxo-α^1-(phenylmethyl)-1,3-pyrrolidinediacetamide] | 23 nM | 2.9 nM |  |
| CC(C)C[C@@]1([C@@H](CCN2C(=O)c3c(F)ccc(F)c3C2=O)C(=O)NO)CCN(CCc2ccccc2)C1=O (relative stereo) [Example 13, α-[2-(4,7-Difluoro-1,3-dihydro-1,3-dioxo-2H-isoindol-2-yl)ethyl]-N-hydroxy-3-(2-methylpropyl)-2-oxo-1-(2-phenylethyl)-3-pyrrolidineacetamide] | 334 nM | 280 nM |  |
| CC(C)C[C@@]1([C@@H](CCN2Cc3cc(F)c(F)cc3C2=O)C(=O)NO)CCN(CCc2ccccc2)C1=O (relative stereo) [Example 85, 5,6-Difluoro-1,3-dihydro-N-hydroxy-α-[3-(2-methylpropyl)-2-oxo-1-(2-phenylethyl)-3-pyrrolidinyl]-1-oxo-2H-isoindole-2-butanamide] | 116 nM | 31 nM |  |
| CNC(=O)CN1CC[C@@](CC(C)C)([C@@H](CCN2C(=O)c3ccccc3C2=O)C(=O)NO)C1=O (relative stereo) [Example 26, α^3-[2-(1,3-Dihydro-1,3-dioxo-2H-isoindol-2-yl)ethyl]-N^3-hydroxy-N^1-methyl-3-(2-methylpropyl)-2-oxo-1,3-pyrrolidinediacetamide] | 713 nM | 998 nM |  |
| CC(C)C[C@@]1([C@@H](CCN2Cc3cc(F)c(F)cc3C2=O)C(=O)NO)CCN(CCc2ccccc2)C1=O [Example 89, [R-(R*,S*)]-5,6-Difluoro-1,3-dihydro-N-hydroxy-α-[3-(2-methylpropyl)-2-oxo-1-(2-phenylethyl)-3-pyrrolidinyl]-1-oxo-2H-isoindole-2-butanamide] | 318 nM | 146 nM |  |
| CC(C)C[C@@]1([C@@H](CCN2C(=O)c3cc4ccccc4cc3C2=O)C(=O)NO)CCN(CCc2ccccc2)C1=O (relative stereo) [Example 6] | 491 nM | 82 nM |  |
| CC(C)C[C@@]1([C@@H](CCN2C(=O)c3c(F)c(F)c(F)c(F)c3C2=O)C(=O)NO)CCN(Cc2ccccc2)C1=O (relative stereo) [Example 24, N-Hydroxy-3-(2-methylpropyl)-2-oxo-1-(phenylmethyl)-α-[2-(4,5,6,7-tetrafluoro-1,3-dihydro-1,3-dioxo-2H-isoindol-2-yl)ethyl]-3-pyrrolidineacetamide] | 7000 nM |  |  |
| CC(C)C[C@@]1([C@@H](CCN2C(=O)c3cc(Cl)c(Cl)cc3C2=O)C(=O)NO)CCN(CCc2ccccc2)C1=O (relative stereo) [Example 8, α-[2-(5,6-Dichloro-1,3-dihydro-1,3-dioxo-2H-isoindol-2-yl)ethyl]-N-hydroxy-3-(2-methylpropyl)-2-oxo-1-(2-phenylethyl)-3-pyrrolidineacetamide] | 1140 nM | 734 nM |  |
| CC(C)C[C@@]1([C@@H](CCNS(=O)(=O)c2ccc(F)cc2)C(=O)NO)CCN(CCc2ccccc2)C1=O [Example 84, [R-(R*,S*)]-α-[2-[[(4-Fluorophenyl)sulfonyl]amino]ethyl]-N-hydroxy-3-(2-methylpropyl)-2-oxo-1-(2-phenylethyl)-3-pyrrolidineacetamide] |  | 3000 nM |  |
| CC(C)CC1(CC(=O)NO)NC(=O)N(CCc2ccccc2)C1=O (centres unmarked) [Example 37, N-Hydroxy-4-(2-methylpropyl)-2,5-dioxo-1-(2-phenylethyl)-4-imidazolidineacetamide] | 4740 nM |  |  |
| CC(C)C[C@@]1([C@@H](CCSc2cccs2)C(=O)NO)CCN(CCc2ccccc2)C1=O (relative stereo) [Example 17, N-Hydroxy-3-(2-methylpropyl)-2-oxo-1-(2-phenylethyl)-α-[2-(2-thienylthio)ethyl]-3-pyrrolidineacetamide] | 2220 nM | 4090 nM |  |
| CC(C)C[C@@]1([C@H](CCN2C(=O)c3ccccc3C2=O)C(=O)NO)CCN(CCc2ccccc2)C1=O [Example 71, [S-(R*,R*)]-1,3-Dihydro-N-hydroxy-α-[3-(2-methylpropyl)-2-oxo-1-(2-phenylethyl)-3-pyrrolidinyl]-1,3-dioxo-2H-isoindole-2-butanamide] |  |  | 98 nM |
| CC(C)C[C@@]1([C@@H](CCN2C(=O)c3c(F)c(F)c(F)c(F)c3C2=O)C(=O)NO)CCN(CCc2ccccc2)C1=O (relative stereo) [Example 7, N-Hydroxy-3-(2-methylpropyl)-2-oxo-1-(2-phenylethyl)-α-[2-(4,5,6,7-tetrafluoro-1,3-dihydro-1,3-dioxo-2H-isoindol-2-yl)ethyl]-3-pyrrolidineacetamide] | 1270 nM | 1420 nM |  |
| CC(C)CC1(C(CSc2cccs2)C(=O)NO)CCN(CCc2ccccc2)C1=O (stereo not drawn) [Example 19, N-Hydroxy-3-(2-methylpropyl)-2-oxo-1-(2-phenylethyl)-α-[2-(2-thienylthio)methyl]-3-pyrrolidineacetamide] | 2770 nM | 2470 nM |  |
| CNC(=O)[C@H](CC1CCCCC1)N1CC[C@](CC(=O)NO)(CC(C)C)C1=O [Example 33, [S-(R*,R*)]-α^1-(Cyclohexylmethyl)-N^3-hydroxy-N^1-methyl-3-(2-methylpropyl)-2-oxo-1,3-pyrrolidinediacetamide] |  |  | 31 nM |

Next, values leading:

| Ki [1] | Ki [2] | Ki [3] | Structure (SMILES) |
| --- | --- | --- | --- |
| 2400 nM | 44000 nM |  | CC(C)CC1(CC(=O)NO)C(=O)N(CCc2ccccc2)C(=O)N1C (centres unmarked) [Example 36, N-Hydroxy-3-methyl-4-(2-methylpropyl)-2,5-dioxo-1-(2-phenylethyl)-4-imidazolidineacetamide] |
|  | 1400 nM |  | CC(C)C[C@@]1([C@@H](CCNS(=O)(=O)c2ccc(F)cc2)C(=O)NO)CCN(CCc2ccccc2)C1=O (relative stereo) [Example 81, α-[2-[[(4-Fluorophenyl)sulfonyl]amino]ethyl]-N-hydroxy-3-(2-methylpropyl)-2-oxo-1-(2-phenylethyl)-3-pyrrolidineacetamide] |
| 194 nM |  | 1200 nM | CCOC(=O)N(CC[C@@H](C(=O)NO)[C@]1(CC(C)C)CCN(CCc2ccccc2)C1=O)C(=O)OCc1ccccc1 (relative stereo) [Example 70, Ethyl Phenylmethyl[4-(hydroxyamino)-3-[3-(2-methylpropyl)-2-oxo-1-(2-phenylethyl)-3-pyrrolidinyl]-4-oxobutyl]imidodicarbonate] |
| 6040 nM |  |  | CC(C)C[C@@]1([C@@H](CCN2C(=O)c3cccc([N+](=O)[O-])c3C2=O)C(=O)NO)CCN(CCc2ccccc2)C1=O (relative stereo) [Example 10, N-Hydroxy-3-(2-methylpropyl)-α-[2-(4-nitro-1,3-dihydro-1,3-dioxo-2H-isoindol-2-yl)ethyl]-2-oxo-1-(2-phenylethyl)-3-pyrrolidineacetamide] |
| 1470 nM | 3040 nM |  | CC(C)C[C@@]1([C@@H](CCCSc2cccs2)C(=O)NO)CCN(CCc2ccccc2)C1=O (relative stereo) [Example 18] |
| 120 nM | 312 nM |  | CC(C)C[C@@]1([C@@H](CCN2C(=O)c3cccc(F)c3C2=O)C(=O)NO)CCN(CCc2ccccc2)C1=O (relative stereo) [Example 12, α-[2-(4-Fluoro-1,3-dihydro-1,3-dioxo-2H-isoindol-2-yl)ethyl]-N-hydroxy-3-(2-methylpropyl)-2-oxo-1-(2-phenylethyl)-3-pyrrolidineacetamide] |
| 11000 nM | 16500 nM |  | CNC(=O)CN1CC[C@@](CC(C)C)([C@@H](CCN2C(=O)c3c(F)c(F)c(F)c(F)c3C2=O)C(=O)NO)C1=O (relative stereo) [Example 27, N^3 -Hydroxy-N^1-methyl-3-(2-methylpropyl)-2-oxo-α^3-[2-(4,5,6,7-tetrafluoro-1,3-dihydro-1,3-dioxo-2H-isoindol-2-yl)ethyl]-1,3-pyrrolidinediacetamide] |
| 3120 nM |  |  | CC(C)CC1(CC(=O)NO)CC(=O)N(CCc2ccccc2)C1=O (centres unmarked) [Example 35, N-Hydroxy-3-(2-methylpropyl)-2,5-dioxo-1-(2-phenylethyl)-3-pyrrolidineacetamide] |
